Measurements taken from paper PMC6915745, “TRIB3 supports breast cancer stemness by suppressing FOXO1 degradation and enhancing SOX2 transcription” (Nature Communications, 2019).

Tests used:
FOXO1 [1] = assay: FOXO1 immunoblot in control or TRIB3-silenced MDA-MB-231 cells with BAF or MG132; format: cell-based; conditions: BAF 200 nM or MG132 10 μM, 8 h, in words
Description: (§1) Fig. 5 TRIB3 stabilizes the FOXO1 protein by suppressing its ubiquitination. a, b HMLE cells transfected with a TRIB3-expressing vector vs. a control vector (a) or MCF7 cells transfected with TRIB3-shRNA vs. CTRL-shRNA (b) were incubated with 20 μM cycloheximide (CHX) for the indicated times. c, d The effect of TRIB3 depletion on FOXO1 degradation in vitro. MCF7 cells (c) were incubated with CHX (20 μM), CHX plus bafilomycin (BAF, 200 nM), or MG132 (10 μM) for the indicated times. Control or TRIB3-silenced MCF7 cells (d, top) and MDA-MB-231 cells (d, bottom) were incubated with DMSO, 200 nM BAF, or 10 μM MG132 for 8 h. The indicated proteins were detected by immunoblotting. e, f FOXO1 activity in HMLE cells (e) transfected with a control vector or a TRIB3-expressing vector, or in MCF7 cells (f) transfected with CTRL-shRNA or TRIB3-shRNA and either a control vector or a FOXO1-expressing vector. g, h The effect of TRIB3 on FOXO1 ubiquitination. HMLE (g) or MCF7 cells (h) were transfected with the indicated plasmid. His-ubiquitin-conjugated proteins were pulled down from cell lysates. Total protein lysates and Ni-NTA-agarose eluates were immunoblotted for FLAG, His, and TRIB3. […]
(§2) Cycloheximide (CHX; Sigma Aldrich, R750107) was used as a protein synthesis inhibitor to assess the stability of the existing proteins. […] The protein concentrations were determined by BCA Protein Assay Kits (Pierce). […]

FOXO1 [2] = assay: FOXO1 protein stability (cycloheximide chase), MCF7 cells; format: cell-based, human; conditions: CHX 20 μM plus BAF 200 nM or MG132 10 μM, in words
Description: Fig. 5 TRIB3 stabilizes the FOXO1 protein by suppressing its ubiquitination. a, b HMLE cells transfected with a TRIB3-expressing vector vs. a control vector (a) or MCF7 cells transfected with TRIB3-shRNA vs. CTRL-shRNA (b) were incubated with 20 μM cycloheximide (CHX) for the indicated times. c, d The effect of TRIB3 depletion on FOXO1 degradation in vitro. MCF7 cells (c) were incubated with CHX (20 μM), CHX plus bafilomycin (BAF, 200 nM), or MG132 (10 μM) for the indicated times. Control or TRIB3-silenced MCF7 cells (d, top) and MDA-MB-231 cells (d, bottom) were incubated with DMSO, 200 nM BAF, or 10 μM MG132 for 8 h. The indicated proteins were detected by immunoblotting. e, f FOXO1 activity in HMLE cells (e) transfected with a control vector or a TRIB3-expressing vector, or in MCF7 cells (f) transfected with CTRL-shRNA or TRIB3-shRNA and either a control vector or a FOXO1-expressing vector. g, h The effect of TRIB3 on FOXO1 ubiquitination. HMLE (g) or MCF7 cells (h) were transfected with the indicated plasmid. His-ubiquitin-conjugated proteins were pulled down from cell lysates. Total protein lysates and Ni-NTA-agarose eluates were immunoblotted for FLAG, His, and TRIB3. Source data are provided as a Source Data file. […] I left them out because their labels are genetic constructs, not substances; their digits are also small
(§3) Cycloheximide (CHX; Sigma Aldrich, R750107) was used as a protein synthesis inhibitor to assess the stability of the existing proteins. To assess protein stability, cells were treated with 20 μM CHX and the proteasome inhibitor MG132 (Sigma Aldrich, R750107) at 10 μM or the autophagy inhibitor BAF (Sigma Aldrich, B1793) at 200 nM for the indicated times. Protein expression was assessed via immunoblot analysis with cell lysates (20–60 μg) prepared in RIPA lysis buffer containing protease inhibitors (Roche) using anti-SOX2 (3529), anti-NANOG (4903), anti-OCT4 (2750), anti-KLF4 (4038), anti-c-Myc (13987), anti-FOXO1 (2880), anti-p-FOXO1 (9461), anti-AKT (4685), anti-p-AKT (4060), anti-β-ACTIN (4970), anti-Ubiquitin (3936), or anti-LaminA/C (4777) antibodies from CST; anti-TRIB3 antibody (ab75846) from Abcam; and anti-Trib3 antibody (PA5-15480) from Thermo Fisher Scientific[59]. All antibodies were used at 1:1000 dilution, with the exception of anti-β-Actin antibodies, which were used at 1:2000 dilution. The protein concentrations were determined by BCA Protein Assay Kits (Pierce). Proteins were separated by SDS-polyacrylamide gel electrophoresis (PAGE) and transferred to polyvinylidene difluoride membrane.

FOXO1 [3] = assay: FOXO1 immunoblot in control or TRIB3-silenced MCF7 cells with BAF or MG132; format: cell-based, human; conditions: BAF 200 nM or MG132 10 μM, 8 h, in words
Description: as §1, §2

TRIB3-GST protein = target: T1, TRIB3-GST protein (Homo sapiens, UniProt Q96RU7); assay: SPR binding kinetics of peptides to TRIB3 (BIAcore T200); conditions: in words
T1 construct: purchased Sino, China
T1 sequence (Q96RU7 1-358): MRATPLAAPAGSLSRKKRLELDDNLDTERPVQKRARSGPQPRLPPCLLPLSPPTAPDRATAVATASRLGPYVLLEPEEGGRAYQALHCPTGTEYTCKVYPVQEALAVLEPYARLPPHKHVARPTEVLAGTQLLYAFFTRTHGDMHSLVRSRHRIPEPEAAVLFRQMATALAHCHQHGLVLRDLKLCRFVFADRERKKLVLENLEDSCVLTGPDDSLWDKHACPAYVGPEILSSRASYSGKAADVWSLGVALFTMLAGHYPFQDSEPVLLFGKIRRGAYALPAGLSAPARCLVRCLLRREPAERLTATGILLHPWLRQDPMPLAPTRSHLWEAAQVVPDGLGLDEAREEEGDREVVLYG
Description: Peptide Ae, alanine mutants of Ae (M1-M13), Pep2–con and Pep2–Ae were synthesized by Guoping Pharmaceutical, Co. (China). The Surface plasmon resonance binding kinetics between TRIB3 and the indicated peptides were analyzed by using a BIAcore T200 system (GE Healthcare)[14]. Briefly, TRIB3-GST protein (Sino, China) was immobilized onto four individual flow cells in a CM5 sensor chip (GE Healthcare) through a standard coupling protocol. To measure the binding kinetics, the indicated peptide (2.5~0.009 μM in 2-fold serial dilutions) and a buffer blank for baseline subtraction were sequentially injected, with a regeneration step (glycine, pH 2.5) inserted between each cycle. The equilibrium dissociation constant (KD) was calculated according to BIA-evaluation software.

[4] = test system: TRIB3-silenced MDA-MB-231 cells; assay: Immunoblot of AKT1/FOXO1/SOX2, TRIB3-silenced MDA-MB-231 cells with AKT1 inhibitor MK2206; format: cell-based; conditions: 24 hr
Description: as §3, with “Proteins were separated by SDS-polyacrylamide gel electrophoresis (PAGE) and transferred to polyvinylidene difluoride membrane.” left out
indicated proteins were detected by immunoblotting. […]
MK2206 for 24 hr. Cell extracts were prepared and the levels of the indicated proteins were detected […]
levels of the indicated proteins were detected by immunoblotting. […]
glucose (HG) for 24 hr was detected by Western blotting. […]

[5] = test system: TRIB3-silenced MCF7 cells; assay: Immunoblot of AKT1/FOXO1/SOX2, TRIB3-silenced MCF7 cells with AKT1 inhibitor MK2206; format: cell-based, human; conditions: TRIB3-silenced MCF7 cells, 24 h
Excerpt: Fig. 6 TRIB3 abrogates the AKT-FOXO1 interaction. a Supervised clustering of MCF7 cells transfected with CTRL-shRNA or TRIB3-shRNA using the log2-transformed values for genes in the FOXO1 upstream pathway, including AMPK, ERK, PI3K, p38, and JNK clustered genes expressed in all samples. Each column represents a separate case. Z-scores from IPA depicting the subnetwork gene expression differences between CTRL-shRNA and TRIB3-shRNA cases. The Z-score heat map depicts the five FOXO1 upstream subnetworks. Each row represents the data for the subnetwork indicated in the right margin. b, c TRIB3 inhibited the activity of AKT1 in BCCs. The indicated stable expression cell extracts were prepared and the levels of the indicated proteins were detected by immunoblotting. d, e The effects of the AKT1 agonist or antagonist for TRIB3-FOXO1-SOX2 axis in BCCs. The indicated cells were treated with the AKT1 agonist SC79 or the antagonist MK2206 for 24 h. […] HMLE cell extracts were IP with an anti-AKT1 Ab and blotted with an anti-TRIB3 or anti-FOXO1 Ab in the presence of the indicated concentration of the TRIB3-GST protein. Data are shown as the mean ± SEM; P > 0.05 was considered not significant (NS); *P < 0.05, **P < 0.01, and ***P < 0.001 compared with the vector or CTRL-shRNA group. Source data are provided as a Source Data file.
as §3

FOXO1 [6] = conditions: HEPG2 cells, after insulin activation of PI3K-AKT; 12-hr under sera deprivation; ref Matsuzaki et al. (2003, PNAS); cited from earlier work
[7] = target: AKT1, endogenous in human cells (human (endogenous in HMLE, MCF7, …, UniProt P31749 1-480)); assay: cell-based or functional assay
AKT1-FOXO1 interaction = assay: Co-IP of AKT1-FOXO1 interaction in HMLE cell extracts with TRIB3-GST protein; format: binding, human; conditions: IP anti-AKT1
Excerpt: Fig. 6 TRIB3 abrogates the AKT-FOXO1 interaction. a Supervised clustering of MCF7 cells transfected with CTRL-shRNA or TRIB3-shRNA using the log2-transformed values for genes in the FOXO1 upstream pathway, including AMPK, ERK, PI3K, p38, and JNK clustered genes expressed in all samples. Each column represents a separate case. Z-scores from IPA depicting the subnetwork gene expression differences between CTRL-shRNA and TRIB3-shRNA cases. The Z-score heat map depicts the five FOXO1 upstream subnetworks. Each row represents the data for the subnetwork indicated in the right margin. b, c TRIB3 inhibited the activity of AKT1 in BCCs. The indicated stable expression cell extracts were prepared and the levels of the indicated proteins were detected by immunoblotting. d, e The effects of the AKT1 agonist or antagonist for TRIB3-FOXO1-SOX2 axis in BCCs. The indicated cells were treated with the AKT1 agonist SC79 or the antagonist MK2206 for 24 h. […]
Cell pellets were lysed with coimmunoprecipitation buffer (25 mM Tri-cl (pH 7.4), 150 mM NaCl, 0.5% NP-40, 2.5 mM MgCl, 0.5 mM EDTA, 5% Glycerol), incubated with IP antibodies overnight at 4 °C with shaking, and then incubated with Protein A/G Plus-Agarose (Santa Cruz Biotechnology) for 2 h at 4 °C[15]. Interaction complexes were separated from the beads by boiling for 10 min and then subjected to SDS-PAGE and detected with immunoblotting.

Sequence of AKT1, endogenous in human cells (human (P31749 whole entry): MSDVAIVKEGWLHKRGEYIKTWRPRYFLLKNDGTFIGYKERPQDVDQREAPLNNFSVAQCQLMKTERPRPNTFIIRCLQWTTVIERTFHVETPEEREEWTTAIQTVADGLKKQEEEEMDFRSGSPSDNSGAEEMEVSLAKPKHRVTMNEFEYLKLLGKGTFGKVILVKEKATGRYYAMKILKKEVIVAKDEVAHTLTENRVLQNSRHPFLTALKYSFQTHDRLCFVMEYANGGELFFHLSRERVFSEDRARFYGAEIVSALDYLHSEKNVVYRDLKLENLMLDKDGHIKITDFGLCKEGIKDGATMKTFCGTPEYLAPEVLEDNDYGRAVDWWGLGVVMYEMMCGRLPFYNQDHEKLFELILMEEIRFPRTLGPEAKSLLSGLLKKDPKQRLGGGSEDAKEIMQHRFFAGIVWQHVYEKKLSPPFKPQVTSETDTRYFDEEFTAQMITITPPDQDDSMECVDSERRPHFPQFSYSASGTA

## CO/C1=C\C(C)=C\[C@@H](C)[C@@H](O)[C@@H](C)C/C(C)=C/C=C/[C@H](OC)[C@@H]([C@@H](C)[C@@H](O)[C@H](C)[C@@]2(O)C[C@@H](O)[C@H](C)[C@@H](C(C)C)O2)OC1=O [BAF, bafilomycin]
FOXO1 [1]
  inhibition of FOXO1 reduction caused by TRIB3 silencing: not by BAF
FOXO1 [2]
  degradation of FOXO1: not by the autophagy inhibitor bafilomycin
FOXO1 [3]
  inhibition of FOXO1 reduction caused by TRIB3 silencing: not by BAF

## Ae: α-helical peptide which mimics the AKT1 191–204 α-helical region (EVAHTLTENRVLQN; UniProt P31749 191-204, looked up, fragment)
TRIB3-GST protein; SPR, series of α-helical peptides of AKT1 catalytic domain
  binding affinity with TRIB3, rank among α-helical peptides: displayed the best binding affinity with TRIB3 among all the α-helical peptides analyzed

## NC1(c2ccc(-c3nc4ccn5c(=O)[nH]nc5c4cc3-c3ccccc3)cc2)CCC1 [MK2206, reference compound]
[4]
  FOXO1 and SOX2 expression: rescued FOXO1 and SOX2 expression
  activity of AKT1 S473 and FOXO1 S256: suppressed the activity of AKT1^S473 and FOXO1^S256
[5]
  FOXO1 and SOX2 expression: rescued FOXO1 and SOX2 expression
  activity of AKT1 S473 and FOXO1 S256: suppressed the activity of AKT1^S473 and FOXO1^S256

## insulin: insulin activation of the PI3K-AKT signaling pathway
FOXO1 [6]
  FOXO1 half-life: approximately 6 hr

## AAHTAAENRV AAA [Pep2–con, reference compound]
TRIB3-GST protein; authors' reply to reviewers
  interaction with TRIB3 of control peptide: no interaction with TRIB3

B1: Tribbles homolog 3 (TRIB3), endogenous in human breast cancer cells (natural protein, UniProt Q96RU7 1-358, looked up)
chain: MRATPLAAPAGSLSRKKRLELDDNLDTERPVQKRARSGPQPRLPPCLLPLSPPTAPDRATAVATASRLGPYVLLEPEEGGRAYQALHCPTGTEYTCKVYPVQEALAVLEPYARLPPHKHVARPTEVLAGTQLLYAFFTRTHGDMHSLVRSRHRIPEPEAAVLFRQMATALAHCHQHGLVLRDLKLCRFVFADRERKKLVLENLEDSCVLTGPDDSLWDKHACPAYVGPEILSSRASYSGKAADVWSLGVALFTMLAGHYPFQDSEPVLLFGKIRRGAYALPAGLSAPARCLVRCLLRREPAERLTATGILLHPWLRQDPMPLAPTRSHLWEAAQVVPDGLGLDEAREEEGDREVVLYG
[7]
  half-life of FOXO1 degradation in MCF7 cells treated with Pep2–Ae (Supplementary Fig. 10d): 36 min

B2: TRIB3-GST protein: TRIB3-GST protein (Sino, China) (protein)
chain: MRATPLAAPAGSLSRKKRLELDDNLDTERPVQKRARSGPQPRLPPCLLPLSPPTAPDRATAVATASRLGPYVLLEPEEGGRAYQALHCPTGTEYTCKVYPVQEALAVLEPYARLPPHKHVARPTEVLAGTQLLYAFFTRTHGDMHSLVRSRHRIPEPEAAVLFRQMATALAHCHQHGLVLRDLKLCRFVFADRERKKLVLENLEDSCVLTGPDDSLWDKHACPAYVGPEILSSRASYSGKAADVWSLGVALFTMLAGHYPFQDSEPVLLFGKIRRGAYALPAGLSAPARCLVRCLLRREPAERLTATGILLHPWLRQDPMPLAPTRSHLWEAAQVVPDGLGLDEAREEEGDREVVLYG
modifications: left off: GST, end not stated, kept
AKT1-FOXO1 interaction
  AKT1-FOXO1 interaction: inhibited the AKT1-FOXO1 interaction by binding to AKT1
